Holding throughout (type): cell-based, Staphylococcus aureus
The subject of one experiment is S. aureus RC2. The settings on record: resistant clone of S. aureus 133; ClpP M190→T, ADEP binding site. As for the experimental part:
(§1) Determination of antibacterial activity: ADEP1 was purified from the culture supernatant of S. hawaiiensis NRRL 15010 as described.4 ADEPs 2, 4, 7, 9 were custom synthesised by EMC Microcollections, Tübingen, or provided by AiCuris, Wuppertal, Germany. The minimal inhibitory concentration (MIC) was determined by broth microdilution in Mueller‐Hinton broth (without cation adjustment) according to the guidelines of the Clinical Laboratory Standards Institute (CLSI).69 The inoculum was set to 5×10^4 CFU mL^−1 to allow some distance to the determined spontaneous resistance frequencies. […] All other ADEPs were used from DMSO stock solutions kept at −20 °C.
(§2) Screening for ADEP‐resistant mutants and determination of resistance rates: Single colonies of wild‐type strains grown on Mueller‐Hinton agar plates overnight were suspended in sterile saline and a final inoculum of 5×10^6 cells was spread on plates supplemented with different ADEP congeners at 4× and 10× the MIC. For B. subtilis strain 3xclpP, ADEP7‐containing Mueller‐Hinton agar plates were additionally supplemented with 1 mM IPTG. Resistant colonies were counted after 24 h at 37 °C and colonies were randomly chosen for MIC determinations and sequencing. Mutations in the clpP gene of the respective isolated mutants were analysed by amplifying the clpP gene (and upstream promoter region) by PCR and sequencing of the resulting PCR amplicons (LGC genomics). Sequencing data were analysed by using SnapGene software (GSL Biotech).

The next experiment has as its system S. aureus RC10. The following applies: resistant clone of S. aureus ATCC 29213; ClpP I165→M (equatorial interface; α6). As for the experimental part: as §1, §2
Another experiment concerns S. aureus RC8. The settings on record: resistant clone of S. aureus ATCC 29213; Δ107 nt, C-terminal truncation. The procedure: as §1, §2
In the next experiment the test system is S. aureus RC7. The settings on record: resistant clone of S. aureus ATCC 29213; ClpP Q89→STOP, premature stop. As for the experimental part:
as §1, §2

For a further experiment, the system named is S. aureus RC11. The following applies: resistant clone of S. aureus ATCC 29213; ClpP Q82→P (ClpP core; α3). The procedure:
as §1, §2

A further experiment relates to S. aureus RC3. The following applies: resistant clone of S. aureus 133; ClpP A133→T, ring-ring interaction. As for the experimental part:
as §1, §2

A further experiment relates to S. aureus RC6. The settings on record: resistant clone of S. aureus 133; ClpP Q35→STOP, premature stop. The procedure:
as §1, §2

For a further experiment, the system named is S. aureus RC16. The following applies: resistant clone of S. aureus ATCC 29213; ClpP A114→T (ClpP core; β5). The procedure:
as §1, §2

Another experiment has as its system S. aureus RC13. The settings on record: resistant clone of S. aureus ATCC 29213; ClpP G68→V (ClpP core). The procedure: as §1, §2
For a further experiment, the system named is S. aureus RC12. The settings on record: resistant clone of S. aureus ATCC 29213; ClpP E9→V, N-terminal gate. The procedure:
as §1, §2

A further experiment concerns S. aureus RC18. The settings on record: resistant clone of S. aureus ATCC 29213; ClpP R23→P, N-terminal gate. The procedure: as §1, §2
For a further experiment, the system named is S. aureus RC9. The following applies: resistant clone of S. aureus ATCC 29213; ClpP H123→R, active site. The procedure: as §1, §2
The next experiment concerns S. aureus RC1. The following applies: resistant clone of S. aureus 133; ClpP Q132→H, oligomerisation sensor. The procedure:
as §1, §2

The test system of another experiment is S. aureus RC14. The settings on record: resistant clone of S. aureus ATCC 29213; ClpP I91→T; A96→V (ClpP core; β3, β4). As for the experimental part:
as §1, §2

In the next experiment the test system is S. aureus RC4. The following applies: resistant clone of S. aureus 133; ClpP N173→D, ring-ring interaction. As for the experimental part: as §1, §2

Data on one molecule can be found in paper PMC7496096, “Functional Characterisation of ClpP Mutations Conferring Resistance to Acyldepsipeptide Antibiotics in Firmicutes” (Chembiochem, 2020).

Converted amounts (≈) assume the structure as drawn.

In general, MIC refers to the lowest concentration that inhibits growth of the organism. Higher therefore signals a less susceptible organism. For the molecule `C[C@@H]1C[C@H]2C(=O)OC[C@H](NC(=O)[C@H](Cc3cc(F)cc(F)c3)NC(=O)CCC3CCCCC3)C(=O)N3CCC[C@H]3C(=O)N3CCCC[C@H]3C(=O)N[C@@H](C)C(=O)N2C1` [ADEP2], the MIC against S. aureus RC2 is 2 µg/mL (≈ 2.5 µM); in the experiment on S. aureus RC10, greater than 64 µg/mL; in the experiment with S. aureus RC8 it was greater than 64 µg/mL; against S. aureus RC7 it was greater than 64 µg/mL; with S. aureus RC11, greater than 64 µg/mL; in the experiment on S. aureus RC3, greater than 64 µg/mL. Also, the minimal inhibitory concentration (MIC) with S. aureus RC6, in the experiment on S. aureus RC16, in the experiment with S. aureus RC13, against S. aureus RC12, in the experiment with S. aureus RC18 and in the experiment with S. aureus RC9 was greater than 64 µg/mL in each case. For the same molecule, the minimum inhibitory concentration (MIC) is 8 µg/mL (≈ 10 µM) in the experiment on S. aureus RC1, greater than 64 µg/mL in the experiment on S. aureus RC14 and greater than 64 µg/mL against S. aureus RC4.
